Measurements taken from patent EP4380555B1, “COMPOSITION COMPRISING D-MANNOSE, N-ACETYLCYSTEINE AND PALMITOYLETHANOLAMIDE AND ITS USE FOR THE TREATMENT OF URIRNARY TRACT INFECTIONS” (Agave S.r.l., priority 2021, dated 2023).
Values after ≈ are worked out from the molar mass of the structure shown.

Tests used:
Type in all cases: cell-based
[1] = test system: Klebsiella pneumoniae; test: Minimum biofilm inhibitory concentration (MBIC), crystal violet staining, comparison with fosfomycin; details: K. pneumoniae; 24 h
Procedure: (§1) The capacity of the product Comp. […] The formation of the biofilm was viewed by means of Crystal Violet staining, wherein the stain penetrates the bacterial cells and turns them purple. To determine the MBIC, 48-well plates were utilised. 200 µL of the sample, prepared at a concentration of 2x with respect to the maximum concentration being tested, was dispensed into the first well and 100 µL of medium was added to the subsequent wells, performing serial dilutions of 1:2 up to the 8th well. Finally, 100 µL of each microorganism at a concentration of 10^5 were inoculated into each well. The biofilm inhibition activity of the fosfomycin, at a lower concentration with respect to the MIC value measured in Example 10, was also assessed and the sterility and growth tests were performed for each microorganism. The multiwell plates were incubated at 37°C for 24 hours and then the supernatant present was removed, together with the planktonic bacteria not attached to the plate. The biofilm was then washed 3 times with PBS and subsequently the cells were fixed by means of incubation at 60°C for 2 hours, before being stained with crystal violet. The crystal violet staining was performed to assess the effect of the product and the fosfomycin on the formation of the biofilm. 50 µL crystal violet dissolved in deionised water was dispensed into each well and, after 5 minutes of incubation at room temperature, each well was finally washed three times with PBS 1x. The biofilm inhibition activity was viewed by microscopic observation under stereomicroscope and optical microscope using the phase-contrast method. The final concentrations tested for each sample are stated in Table 3. Table 3 [table]

[2] = test system: Enterococcus faecium; test: as above; details: E. faecium; 24 h
Procedure: as §1

[3] = test system: Escherichia coli; test: as above; details: E. coli; 24 h
Procedure: as §1

[4] = test system: Enterococcus faecium; test: MIC determination by broth dilution (CLSI M07), 96-well plates; details: Enterococcus faecium; E. faecium, 37°C, 24 h
[5] = test system: Klebsiella pneumoniae; test: Minimum biofilm eradication concentration (MBEC), 72 h preformed biofilm, crystal violet staining; details: K. pneumoniae; 72 h biofilm, 24 h treatment
Procedure: (§2) To determine the minimum biofilm eradication concentration, 48-well plates were utilised. The microorganisms were incubated for 72 h at 37°C to allow the formation of the biofilm. Once formed, the biofilm was treated with fosfomycin and with the product Comp. 1 in Example 10. In particular, after the formation of the biofilm, the supernatant was suctioned and replaced with solutions containing gradually decreasing concentrations of product or of fosfomycin. The plates thus prepared were incubated for 24 h at 37°C. At the end of the incubation time, the supernatant present in each well was removed, together with the bacteria that was not attached to the plate and, after washing, the plates were incubated at 60°C for 2 hours to fix the cells before the staining with crystal violet. The crystal violet staining was performed to assess the effect of the product and the fosfomycin on the removal of the biofilm. 50 µL crystal violet dissolved in deionised water was dispensed into each well. After 5 minutes of incubation at room temperature, each well was washed three times with PBS 1x. The biofilm eradication activity was viewed under microscopic observation (Figures 7-9). The final concentrations tested for each product are stated in Table 4 Table 4 [table]

[6] = test system: Enterococcus faecium; test: as above; details: E. faecium; fosfomycin 3000-23.44 µg/mL tested
Procedure: as §2

[7] = test system: Escherichia coli; test: as above; details: E.coli; fosfomycin 30000-234.38 µg/mL tested
Procedure: as §2

[8] = test system: Klebsiella pneumoniae (DSM 30104); test: MIC determination by broth dilution (CLSI M07), 96-well plates; details: Klebsiella pneumoniae, DSM30104; Klebsiella, 37°C, 24 h
Procedure: (§3) The antimicrobial activity of the product Comp. 1 in Example 10 was tested in vitro according to method CLSI M07 "Methods for dilution Antimicrobial susceptibility tests for bacteria that grow aerobically".
(§4) For this purpose, the MIC (Minimum Inhibitory Concentration) values were determined with respect to the main microorganisms responsible for urinary tract infections.
(§5) More specifically, the microorganisms utilised were: Escherichia coli (DSM 1576), Klebsiella pneumoniae (DSM 30104), and Enterococcus faecalis(DSM 20477).
(§6) For each experiment conducted, the bacteria stated above were revived from a cell bank stored at -80°C. […]
(§7) The assay to determine the MIC was conducted in 96-well plates testing 12 concentrations (serial dilutions) of each sample. 200 µL of the sample, prepared at a concentration of 2x with respect to the maximum concentration being tested, was dispensed into the first well and 100 µL medium was added to the subsequent wells, performing serial dilutions of 1:2 up to 12th well. Finally, 100 µL of each microorganism at a concentration of 10^5 was inoculated into each well.
(§8) Two antibiotics were used as controls: Fosfomycin (Sigma) and Ceftriaxone (Sigma) at different final concentrations based on the microorganism utilised; both the antibiotics were dissolved in sterile water and then filtered with 0.22 µm filters.
(§9) Growth was tested and the sterility of the medium and of the product was tested. The antimicrobial activity of the D-mannose was also assessed individually. The plates thus prepared were incubated at 37°C for 24h and the results were then observed (Figure 1). The final concentrations tested for each product analysed are stated in Table 2.

[9] = test system: Escherichia coli (DSM 1576); test: as above; details: Escherichia coli, DSM1576; E. coli, 37°C, 24 h
Procedure: as §3, §4, §5, §6, §7, §8, §9

MIC [4]: 78.1 µg/mL (≈ 566 µM)
MIC [8]: 5000 µg/mL (≈ 36200 µM)
MIC [9]: 19.5 µg/mL (≈ 141 µM)
Compound: C[C@@H]1O[C@@H]1P(=O)(O)O [fosfomycin, Fosfomycin]
concentrations with a biofilm inhibition effect [1]: ≥ 78 µg/mL
concentration necessary for biofilm inhibition effect [2]: at least 321 µg/mL
concentrations with a biofilm inhibition effect [3]: ≥ 78 µg/mL
concentrations with biofilm eradication activity [5]: greater than 468 µg/mL
biofilm eradication effect [6]: did not seem to have a biofilm eradication effect
biofilm eradication effect [7]: did not seem to have a biofilm eradication effect
